Here are results for two molecules from PMC2865264 (The Journal of Biological Chemistry, 2010).

One data set deals with T1, GST:PK50 (Trypanosoma brucei, UniProt Q26801).
T1 sequence (Q26801 1-437): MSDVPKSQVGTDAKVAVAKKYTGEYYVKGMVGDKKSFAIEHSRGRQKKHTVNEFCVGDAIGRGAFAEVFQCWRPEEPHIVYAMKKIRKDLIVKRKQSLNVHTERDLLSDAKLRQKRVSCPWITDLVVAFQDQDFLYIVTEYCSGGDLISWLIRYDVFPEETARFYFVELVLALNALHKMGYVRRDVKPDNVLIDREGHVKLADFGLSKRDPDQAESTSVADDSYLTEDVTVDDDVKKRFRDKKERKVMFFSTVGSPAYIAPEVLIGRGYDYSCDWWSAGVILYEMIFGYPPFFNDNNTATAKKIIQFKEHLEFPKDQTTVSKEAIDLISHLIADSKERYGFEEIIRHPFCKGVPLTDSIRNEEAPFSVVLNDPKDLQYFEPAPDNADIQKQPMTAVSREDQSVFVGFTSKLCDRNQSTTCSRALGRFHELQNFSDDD
Nature of the data set: radiometric filter plate kinase assay, [gamma-33P]ATP, 10-point dilution. The class given is biochemical.

Another data set addresses GST:PK53 (Trypanosoma brucei, UniProt Q582J2, E440D). The conditions noted are these: ATP at its Km; peptide KKLNRTLSFAEPG; Tris-HCl pH 7.0, 1 mM MnCl2, 1% DMSO.
Substrate in the data set “purified protein”: Nc1ncnc2c1ncn2[C@@H]1O[C@H](COP(=O)(O)OP(=O)(O)OP(=O)(O)O)[C@@H](O)[C@H]1O
Description: purified protein. The conditions noted are these: co-substrate peptide … varied, 15 nM enzyme, Tris-HCl pH 7.9, 3 mM MnCl2.

`CN[C@@H]1C[C@H]2O[C@@](C)([C@@H]1OC)n1c3ccccc3c3c4c(c5c6ccccc6n2c5c31)C(=O)NC4` [staurosporine]: the IC50 against GST:PK50 was 216 ± 47 nM; against GST:PK53, 4.6 ± 0.3 nM.

B1: GST:PK50 (Trypanosoma brucei) (protein)
chain: MSDVPKSQVGTDAKVAVAKKYTGEYYVKGMVGDKKSFAIEHSRGRQKKHTVNEFCVGDAIGRGAFAEVFQCWRPEEPHIVYAMKKIRKDLIVKRKQSLNVHTERDLLSDAKLRQKRVSCPWITDLVVAFQDQDFLYIVTEYCSGGDLISWLIRYDVFPEETARFYFVELVLALNALHKMGYVRRDVKPDNVLIDREGHVKLADFGLSKRDPDQAESTSVADDSYLTEDVTVDDDVKKRFRDKKERKVMFFSTVGSPAYIAPEVLIGRGYDYSCDWWSAGVILYEMIFGYPPFFNDNNTATAKKIIQFKEHLEFPKDQTTVSKEAIDLISHLIADSKERYGFEEIIRHPFCKGVPLTDSIRNEEAPFSVVLNDPKDLQYFEPAPDNADIQKQPMTAVSREDQSVFVGFTSKLCDRNQSTTCSRALGRFHELQNFSDDD
In the case of B1, in “purified protein”, the Km was found to be 25.7 ± 4.8 µM.

For orientation: IC50 means the point on the concentration scale where inhibition reaches its midpoint. A lower IC50 goes with greater potency. By Km is commonly meant the substrate concentration at which the rate is half of its maximum.
